Measurements as given in PubChem BioAssay (NCI).
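Method: 48-hour compound exposure of cells in 96-well plates, five concentrations, linear interpolation of endpoints. At the GI50, growth is halved. TGI marks complete inhibition of growth.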

Assays:
Test in all cases: inhibition of tumour cell growth, NCI panel, 48 h
786-0 renal = test system: 786-0 renal
A498 renal = test system: A498 renal
A549 NSCLC = test system: A549 NSCLC
ACHN renal = test system: ACHN renal
CAKI-1 renal = test system: CAKI-1 renal
CCRF-CEM leukemia = test system: CCRF-CEM leukemia
COLO 205 colon = test system: COLO 205 colon
DU-145 prostate = test system: DU-145 prostate
EKVX NSCLC = test system: EKVX NSCLC
HCC-2998 colon = test system: HCC-2998 colon
HCT-116 colon = test system: HCT-116 colon
HCT-15 colon = test system: HCT-15 colon
HOP-62 NSCLC = test system: HOP-62 NSCLC
HOP-92 NSCLC = test system: HOP-92 NSCLC
HS 578T breast = test system: HS 578T breast
HT29 colon = test system: HT29 colon
IGROV1 ovarian = test system: IGROV1 ovarian
K-562 leukemia = test system: K-562 leukemia
KM12 colon = test system: KM12 colon
LOX IMVI melanoma = test system: LOX IMVI melanoma
M14 melanoma = test system: M14 melanoma
MALME-3M melanoma = test system: MALME-3M melanoma
MCF7 breast = test system: MCF7 breast
MDA-MB-231 breast = test system: MDA-MB-231 breast
MDA-MB-435 = test system: MDA-MB-435
NCI-H226 lung = test system: NCI-H226 lung
NCI-H23 lung = test system: NCI-H23 lung
NCI-H460 lung = test system: NCI-H460 lung
NCI-H522 lung = test system: NCI-H522 lung
NCI/ADR-RES ovarian = test system: NCI/ADR-RES ovarian
OVCAR-3 ovarian = test system: OVCAR-3 ovarian
OVCAR-4 ovarian = test system: OVCAR-4 ovarian
OVCAR-5 ovarian = test system: OVCAR-5 ovarian
OVCAR-8 ovarian = test system: OVCAR-8 ovarian
PC-3 prostate = test system: PC-3 prostate
RPMI-8226 leukemia = test system: RPMI-8226 leukemia
SF-268 CNS = test system: SF-268 CNS
SF-295 CNS = test system: SF-295 CNS
SF-539 CNS = test system: SF-539 CNS
SK-MEL-2 melanoma = test system: SK-MEL-2 melanoma
SK-MEL-28 melanoma = test system: SK-MEL-28 melanoma
SK-MEL-5 melanoma = test system: SK-MEL-5 melanoma
SK-OV-3 ovarian = test system: SK-OV-3 ovarian
SN12C renal = test system: SN12C renal
SNB-19 CNS = test system: SNB-19 CNS
SNB-75 CNS = test system: SNB-75 CNS
SW-620 colon = test system: SW-620 colon
T-47D breast = test system: T-47D breast
TK-10 renal = test system: TK-10 renal
U251 CNS = test system: U251 CNS
UACC-257 melanoma = test system: UACC-257 melanoma
UACC-62 melanoma = test system: UACC-62 melanoma
UO-31 renal = test system: UO-31 renal
HL-60(TB) leukemia = test system: HL-60(TB) leukemia
MOLT-4 leukemia = test system: MOLT-4 leukemia
RXF 393 renal = test system: RXF 393 renal
SR leukemia = test system: SR leukemia

Structure (SMILES): O=C(COc1ccc(/C=C2\CSc3ccccc3C2=O)cc1)Nc1nccs1
- GI50 (786-0 renal): 14 µM
- TGI (786-0 renal): 27 µM
- GI50 (A498 renal): 15.8 µM
- TGI (A498 renal): 29.2 µM
- GI50 (A549 NSCLC): 15.3 µM
- TGI (A549 NSCLC): 28.5 µM
- GI50 (ACHN renal): 13.5 µM
- TGI (ACHN renal): 26.4 µM
- GI50 (CAKI-1 renal): 12.8 µM
- TGI (CAKI-1 renal): 25.3 µM
- GI50 (CCRF-CEM leukemia): 2.01 µM
- TGI (CCRF-CEM leukemia): 9.09 µM
- GI50 (COLO 205 colon): 14.1 µM
- TGI (COLO 205 colon): 27.1 µM
- GI50 (DU-145 prostate): 4.2 µM
- TGI (DU-145 prostate): 14.3 µM
- GI50 (EKVX NSCLC): 17.3 µM
- TGI (EKVX NSCLC): 31.1 µM
- GI50 (HCC-2998 colon): 4.03 µM
- TGI (HCC-2998 colon): 17.1 µM
- GI50 (HCT-116 colon): 4.32 µM
- TGI (HCT-116 colon): 14.7 µM
- GI50 (HCT-15 colon): 4.03 µM
- TGI (HCT-15 colon): 14.7 µM
- GI50 (HOP-62 NSCLC): 16.3 µM
- TGI (HOP-62 NSCLC): 30.8 µM
- GI50 (HOP-92 NSCLC): 0.026 µM
- TGI (HOP-92 NSCLC): 9.46 µM
- GI50 (HS 578T breast): 4.29 µM
- TGI (HS 578T breast): 37.2 µM
- GI50 (HT29 colon): 4.48 µM
- TGI (HT29 colon): 16.2 µM
- GI50 (IGROV1 ovarian): 1.38 µM
- TGI (IGROV1 ovarian): 2.67 µM
- GI50 (K-562 leukemia): 3.11 µM
- TGI (K-562 leukemia): > 100 µM
- GI50 (KM12 colon): 2.96 µM
- TGI (KM12 colon): 8.99 µM
- GI50 (LOX IMVI melanoma): 1.77 µM
- TGI (LOX IMVI melanoma): 3.41 µM
- GI50 (M14 melanoma): 9.38 µM
- TGI (M14 melanoma): 21.2 µM
- GI50 (MALME-3M melanoma): 15 µM
- TGI (MALME-3M melanoma): 31.4 µM
- GI50 (MCF7 breast): 3.43 µM
- TGI (MCF7 breast): 10.6 µM
- GI50 (MDA-MB-231 breast): 14.4 µM
- TGI (MDA-MB-231 breast): 35 µM
- GI50 (MDA-MB-435): 3.31 µM
- TGI (MDA-MB-435): 15.1 µM
- GI50 (NCI-H226 lung): 15.6 µM
- TGI (NCI-H226 lung): 32.5 µM
- GI50 (NCI-H23 lung): 11.7 µM
- TGI (NCI-H23 lung): 24.3 µM
- GI50 (NCI-H460 lung): 15.9 µM
- TGI (NCI-H460 lung): 31.9 µM
- GI50 (NCI-H522 lung): 1.92 µM
- TGI (NCI-H522 lung): 4.17 µM
- GI50 (NCI/ADR-RES ovarian): 21.4 µM
- TGI (NCI/ADR-RES ovarian): 66.5 µM
- GI50 (OVCAR-3 ovarian): 2.17 µM
- TGI (OVCAR-3 ovarian): 4.25 µM
- GI50 (OVCAR-4 ovarian): 18.9 µM
- TGI (OVCAR-4 ovarian): 72.3 µM
- GI50 (OVCAR-5 ovarian): 18.2 µM
- TGI (OVCAR-5 ovarian): 32.8 µM
- GI50 (OVCAR-8 ovarian): 7.76 µM
- TGI (OVCAR-8 ovarian): 32.8 µM
- GI50 (PC-3 prostate): 3.97 µM
- TGI (PC-3 prostate): 28.9 µM
- GI50 (RPMI-8226 leukemia): 2.13 µM
- TGI (RPMI-8226 leukemia): 6.7 µM
- GI50 (SF-268 CNS): 3.61 µM
- TGI (SF-268 CNS): 13.6 µM
- GI50 (SF-295 CNS): 11.8 µM
- TGI (SF-295 CNS): 25.6 µM
- GI50 (SF-539 CNS): 15 µM
- TGI (SF-539 CNS): 29.7 µM
- GI50 (SK-MEL-2 melanoma): 11.3 µM
- TGI (SK-MEL-2 melanoma): 23.3 µM
- GI50 (SK-MEL-28 melanoma): 11.8 µM
- TGI (SK-MEL-28 melanoma): 24.1 µM
- GI50 (SK-MEL-5 melanoma): 11.5 µM
- TGI (SK-MEL-5 melanoma): 23.6 µM
- GI50 (SK-OV-3 ovarian): 22.2 µM
- TGI (SK-OV-3 ovarian): 42.2 µM
- GI50 (SN12C renal): 5.8 µM
- TGI (SN12C renal): 29.8 µM
- GI50 (SNB-19 CNS): 13.4 µM
- TGI (SNB-19 CNS): 26.2 µM
- GI50 (SNB-75 CNS): 11.5 µM
- TGI (SNB-75 CNS): 25.1 µM
- GI50 (SW-620 colon): 2.7 µM
- TGI (SW-620 colon): 7.12 µM
- GI50 (T-47D breast): 13.5 µM
- TGI (T-47D breast): 42.4 µM
- GI50 (TK-10 renal): 10.6 µM
- TGI (TK-10 renal): 27.7 µM
- GI50 (U251 CNS): 6.93 µM
- TGI (U251 CNS): 19.5 µM
- GI50 (UACC-257 melanoma): 12.6 µM
- TGI (UACC-257 melanoma): 25.1 µM
- GI50 (UACC-62 melanoma): 5.32 µM
- TGI (UACC-62 melanoma): 19 µM
- GI50 (UO-31 renal): 2.24 µM
- TGI (UO-31 renal): 6.73 µM

Structure (SMILES): CC1=COC(C)(C=C(C#N)C#N)CC1 (stereo unspecified)
- TGI (786-0 renal): > 100 µM
- TGI (A498 renal): > 100 µM
- TGI (A549 NSCLC): > 100 µM
- TGI (ACHN renal): > 100 µM
- TGI (CCRF-CEM leukemia): > 100 µM
- TGI (COLO 205 colon): > 100 µM
- TGI (DU-145 prostate): > 100 µM
- TGI (EKVX NSCLC): > 100 µM
- TGI (HCC-2998 colon): > 100 µM
- TGI (HCT-116 colon): > 100 µM
- TGI (HL-60(TB) leukemia): 50.1 µM
- TGI (HOP-62 NSCLC): > 100 µM
- TGI (HS 578T breast): 51.3 µM
- TGI (HT29 colon): > 100 µM
- TGI (IGROV1 ovarian): > 100 µM
- TGI (K-562 leukemia): > 100 µM
- TGI (KM12 colon): > 100 µM
- TGI (M14 melanoma): > 100 µM
- TGI (MALME-3M melanoma): > 100 µM
- TGI (MCF7 breast): > 100 µM
- TGI (MDA-MB-231 breast): > 100 µM
- TGI (MDA-MB-435): > 100 µM
- TGI (MOLT-4 leukemia): > 100 µM
- TGI (NCI-H226 lung): > 100 µM
- TGI (NCI-H23 lung): > 100 µM
- TGI (NCI-H460 lung): > 100 µM
- TGI (NCI/ADR-RES ovarian): > 100 µM
- TGI (OVCAR-4 ovarian): > 100 µM
- TGI (OVCAR-5 ovarian): > 100 µM
- TGI (OVCAR-8 ovarian): > 100 µM
- TGI (RPMI-8226 leukemia): > 100 µM
- TGI (RXF 393 renal): > 100 µM
- TGI (SF-268 CNS): > 100 µM
- TGI (SF-295 CNS): > 100 µM
- TGI (SF-539 CNS): 51.1 µM
- TGI (SK-MEL-28 melanoma): > 100 µM
- TGI (SK-MEL-5 melanoma): > 100 µM
- TGI (SK-OV-3 ovarian): > 100 µM
- TGI (SN12C renal): > 100 µM
- TGI (SNB-19 CNS): > 100 µM
- TGI (SNB-75 CNS): > 100 µM
- TGI (SR leukemia): > 100 µM
- TGI (SW-620 colon): > 100 µM
- TGI (T-47D breast): > 100 µM
- TGI (TK-10 renal): > 100 µM
- TGI (U251 CNS): > 100 µM
- TGI (UACC-257 melanoma): > 100 µM
- TGI (UACC-62 melanoma): > 100 µM
- TGI (UO-31 renal): > 100 µM

Structure (SMILES): C=CC1CC1(CO)COc1cc(Cl)nc(N)n1 (stereo unspecified)
- GI50 (SNB-75 CNS): 86.4 µM
